Measured values taken from patent publication US20050220895A1, “Use of gallium to treat inflammatory arthritis” (priority 2003, published 2005).
Entries after “also recorded” stand apart in the source; their conditions may differ.

What was measured:
[1] = Serum gallium levels, chronic arthritis study; type: in vivo, rat; conditions: Study PG-PS/TT-1, 100 mg/kg, 1% MC suspension, 35 days, pretreatment 13 days, fasted, 1 hour post-dosing
Method: (§1) Materials and methods: Male Lewis rats (N=12/group) with developing streptococcal (PGPS) cell wall induced arthritis were treated with gallium maltolate (100, 200 or 300 mg/kg, po, qd) or Cyclosporin A (CSA, 5-20 mg/kg) prophylactically beginning 1 day after intra-articular injection of PGPS into the ankles (day −14) and continued for 14 days at which time systemic reactivation was induced by intravenous (iv) injection of PGPS (day 0). Treatment was continued for another 14 days and animals were reactivated a second time (day 14). Following an additional week of treatment, rats were terminated for a total of […] of dosing. Rats were weighed on days (−)13, (−)7, 0, 8, 14 and 21, at which time, dose volumes were adjusted. Right ankle caliper measurements were taken on days 0, 2, 4, 6, 8, 10, 12, 14, 16, 18, 20 and 21. […] All rats had terminal blood samples obtained for PK sampling. Scoring of Joints: PGPS arthritic ankles are given scores of 0-5 (normal to severe) for inflammation, pannus, cartilage damage, bone resorption and periosteal bone proliferation according criteria similar to the acute arthritis study. The primary endpoint is periarticular inflammation and bone resorption as quantitated by ankle caliper measurements and histopathologic evaluation of ankles (scoring of joints).
The following data was compiled from the above described model studies. […]

[2] = system: male Lewis rats with streptococcal (PGPS) cell wall induced arthritis; test: Streptococcal cell wall (PGPS)-induced chronic arthritis model; type: in vivo; conditions: 100, 200 and 300 mg/kg daily oral gavage, 35 days
[3] = system: male Lewis rats with streptococcal (PGPS) cell wall induced arthritis; test: as above; type: in vivo
Method: (§2) Two preclinical animal models were tested for oral gallium efficacy in inflammatory polyarthritis; adjuvant-induced acute arthritis and streptococcal cell wall-induced chronic arthritis, respectively. Male Lewis rats were used in both studies. The models are described in detail in Bendele et al. (1999) Toxicologic Pathology 27(1):134-142 and Bendele (2001) J. Musculoskel. Neuron. Interact. 1(4):377-385.
This is a multiple reactivated peptidoglycan-polysaccharide (PGPS)-induced arthritis model. The rapid onset (4-5 days) of arthritic symptoms in this model includes ankle inflammation, bone resorption, mild cartilage destruction.
as §1

[4] = system: male Lewis rats with adjuvant-induced acute arthritis; test: Adjuvant-induced acute arthritis model; type: in vivo
Method: as §2
(§3) Materials and methods: For the adjuvant-induced acute arthritis model, male Lewis rats (7 per group for Gallium Maltolate, 4 per group for normal controls and dexamethasone-treated controls) were injected with 100 μl of Freund's complete adjuvant/lipoidal amine (FCA/LA) subcutaneously at the base of the tail on study day 0 under anesthesia. The rapid onset (within 7 days) of arthritic symptoms in this model includes ankle inflammation, bone resorption, and mild cartilage destruction. Prophylactic treatment was initiated by dosing with control vehicle or Gallium Maltolate (100 or 300 mg/kg) by daily oral gavage, from seven days prior to adjuvant injection until termination. The dexamethasone-treated control animals were administered a daily oral dose of dexamethasone (0.1 mg/kg). Body weights were measured regularly during the course of the study to track the effect of the drugs on the weight loss induced by the developing adjuvant disease, and dose volumes were adjusted accordingly. Prior to the onset of swelling, but after the establishment of systemic disease (about 7 days after adjuvant injection), caliper measurements were made of ankle joints. Ankles were measured every day until 14 days post-adjuvant injection when the rats were anesthetized and euthanized. Serum was harvested one hour after final dosing for gallium quantitation. Hind paws, liver and spleen were weighed, fixed and processed for histopathologic evaluation. Adjuvant arthritic ankles were given scores of 0-5 (0=normal; 5=severe) for inflammation and bone resorption. Splenic changes of inflammation, increased extramedullary hematopoiesis and lymphoid atrophy were scored 0-5 using criteria similar to those used for scoring of inflammation. The primary endpoint is periarticular inflammation and bone resorption as quantitated by ankle caliper measurements and histopathologic evaluation of ankles (scoring of joints). Secondary endpoints include body weight change and the inhibition of splenomegaly and hepatomegaly.

[5] = Serum gallium levels, acute arthritis studies; type: in vivo, rat; conditions: for Mean Serum Gallium Concentration: 14 days, 1 hour post-dosing
Method: as §3, with “Prophylactic treatment was initiated by dosing with control vehicle or Gallium Maltolate (100 or 300 mg/kg) by daily oral gavage, from seven days prior to adjuvant injection until termination.” left out
The following data was compiled from the above described model studies. All sampling was done 1 hour post-dosing.

[6] = 100 or 300 mg/kg daily oral gavage, both doses

Question: With `Cc1occc(=O)c1[O-].Cc1occc(=O)c1[O-].Cc1occc(=O)c1[O-].[Ga+3]` [gallium maltolate, tris(3-hydroxy-2-methyl-4H-pyran-4-onato) gallium] as the compound, how does the Mean Serum Gallium Concentration [1] read?
Answer: 2050 ng/mL

Question: And the “safety / signs of toxicity” value [2]?
Answer: safe and showed no signs of toxicity; also recorded: safe with no signs of toxicity

Question: And the “inflammation after the first reactivation of arthritis on day 0” value ([3]; 300 mg/kg oral)?
Answer: slight inhibition

Question: What about the “ankle swelling, first reactivation” value ([3]; 300 mg/kg, day 12) of the same compound?
Answer: reduced the swelling significantly

Question: And the bone resorption ([3]; 100, 200 or 300 mg/kg po qd)?
Answer: Significant dose dependent anti-inflammatory effects

Question: What about the “cartilage (damage)” value ([3]; 100, 200 or 300 mg/kg po qd) of the same compound?
Answer: Significant dose dependent anti-inflammatory effects

Question: And the histological inflammation scores ([3]; 100, 200 or 300 mg/kg po qd)?
Answer: dose-related inhibition

Question: And the pannus ([3]; 100, 200 or 300 mg/kg po qd)?
Answer: dose-related effect; also recorded: Significant dose dependent anti-inflammatory effects

Question: And the periosteal proliferation ([3]; 100, 200 or 300 mg/kg po qd)?
Answer: dose-related effect; also recorded: Significant dose dependent anti-inflammatory effects

Question: What about the “paw weights after the second reactivation” value ([3]; 100, 200 or 300 mg/kg po qd, all treated groups) of the same compound?
Answer: decreased

Question: And the “inhibition of the sum of the scores for inflammation, pannus, cartilage damage and bone damage (joint histopathology)” value ([3]; 100, 200 or 300 mg/kg po qd, dose responsive)?
Answer: 20-45%

Question: And the “ankle swelling after the second reactivation (flare-up, day 14)” value ([3]; gallium maltolate 100, 200 or 300 mg/kg po qd, Cyclosporin A 5-20 mg/kg)?
Answer: decreased ankle swelling

Question: And the “peak effect on ankle swelling, time after the flare-up” value ([3]; second reactivation on day 14)?
Answer: ≤ 6 days

Question: What about the “start of decreased ankle swelling after the flare-up” value ([3]; second reactivation on day 14) of the same compound?
Answer: ≤ 2 days

Question: And the “safety / signs of toxicity” value ([4]; 100 or 300 mg/kg daily oral gavage in 1% methyl cellulose, 14 days, Lewis rats)?
Answer: safe and showed no signs of toxicity; also recorded: safe with no signs of toxicity

Question: What about the bone resorption scores [4, 6] of the same compound?
Answer: significant reduction

Question: And the “liver and spleen hypertrophy (weights)” value [4, 6]?
Answer: dose-related decrease; also recorded: marked reduction

Question: What about the “effect on body weight (arthritis-induced body weight loss)” value ([4]; gallium maltolate 100 or 300 mg/kg, dexamethasone 0.1 mg/kg, daily oral) of the same compound?
Answer: favorable effect

Question: What about the “ankle (joint) inflammation, clinical and histological” value ([4]; gallium maltolate 100 or 300 mg/kg, dexamethasone 0.1 mg/kg, daily oral, vs disease control) of the same compound?
Answer: reduced ankle inflammation; also recorded: significant reduction; also recorded: Significant dose dependent protection

Question: What about the “spleen histopathology: atrophy of the lymphoid tissue” value ([4]; oral gallium maltolate) of the same compound?
Answer: prevented atrophy

Question: What about the “spleen histopathology: inflammation in the spleen” value ([4]; oral gallium maltolate) of the same compound?
Answer: significantly reduced inflammation

Question: What about the “serum gallium levels attained” value ([5]; 100 or 300 mg/kg daily oral gavage) of the same compound?
Answer: dose-dependent

Question: And the Mean Serum Gallium Concentration ([5]; Study LATT-1, 100 mg/kg, solution, pretreatment 1 day, not fasted)?
Answer: 652 ng/mL

Question: What about the Mean Serum Gallium Concentration ([5]; Study LATT-2, 100 mg/kg, 1% MC suspension, pretreatment 1 day, fasted) of the same compound?
Answer: 1350 ng/mL

Question: What about the Mean Serum Gallium Concentration ([5]; Study LATT-2, 300 mg/kg, 1% MC suspension, pretreatment 1 day, fasted) of the same compound?
Answer: 3470 ng/mL

Question: And the Mean Serum Gallium Concentration ([5]; Study LATT-2, 300 mg/kg, 1% MC suspension, pretreatment 7 days, fasted)?
Answer: 2960 ng/mL
